Measured values taken from patent publication US10336711B2, “Prolyl hydroxylase inhibitors” (GlaxoSmithKline, LLC, priority 2006, dated 2019).

System: Hep3B cells
Test: Epo protein produced by Hep3B cell line using ELISA method
Assay type: cell-based
Details: Homo sapiens, 48 Hours incubation, 100 micromolar the maximum concentration tested
Protocol: Measure Epo Protein Produced by Hep3B Cell Line Using ELISA Method.
Hep3B cells obtained from the American Type Culture Collection (ATCC) are seeded at 2×10^4 cells/well in Dulbecco's Modified Eagle Medium (DMEM)+10% FBS in 96-well plates. Cells are incubated at 37deg C./5% CO2/90% humidity (standard cell culture incubation conditions). After overnight adherence, medium is removed and replaced with DMEM without serum containing test compound or DMSO negative control. Following 48 Hours incubation, cell culture medium is collected and assayed by ELISA to quantitate Epo protein.

| SMILES | EC50 |
| --- | --- |
| O=C(O)CNC(=O)c1c(O)n(-c2ccccn2)c(=O)n(Cc2ccccc2)c1=O [Example 8, N-{[6-Hydroxy-2,4-dioxo-3-(phenylmethyl)-1-(2-pyridinyl)-1,2,3,4-tetrahydro-5-pyrimidinyl]carbonyl}glycine] | > 100 µM |
| O=C(O)CNC(=O)c1c(O)n(-c2ccccc2[N+](=O)[O-])c(=O)n(Cc2ccccc2)c1=O [Example 9, N-{[6-Hydroxy-1-(2-nitrophenyl)-2,4-dioxo-3-(phenylmethyl)-1,2,3,4-tetrahydro-5-pyrimidinyl]carbonyl}glycine] | > 100 µM |
| CC(C)(C)c1ccc(Cn2c(=O)c(C(=O)NCC(=O)O)c(O)n(-c3ccccc3-c3ccccc3)c2=O)cc1 [Example 31, N-[(1-(2-Biphenylyl)-3-{[4-(1,1-dimethylethyl)phenyl]methyl}-6-hydroxy-2,4-dioxo-1,2,3,4-tetrahydro-5-pyrimidinyl)carbonyl]glycine] | > 100 µM |
| O=C(O)CNC(=O)c1c(O)n(C2CCCCC2)c(=O)n(CCCN2CCOCC2)c1=O [Example 35, N-({1-Cyclohexyl-6-hydroxy-3-[3-(4-morpholinyl)propyl]-2,4-dioxo-1,2,3,4-tetrahydro-5-pyrimidinyl}carbonyl)glycine] | > 100 µM |
| CC1(C)CCC(C)(C)c2cc(Cn3c(=O)c(C(=O)NCC(=O)O)c(O)n(C4CCCCC4)c3=O)ccc21 [Example 39, N-({1-Cyclohexyl-6-hydroxy-2,4-dioxo-3-[(5,5,8,8-tetramethyl-5,6,7,8-tetrahydro-2-naphthalenyl)methyl]-1,2,3,4-tetrahydro-5-pyrimidinyl}carbonyl)glycine] | > 100 µM |
| O=C(O)CNC(=O)c1c(O)n(-c2cccc3ccccc23)c(=O)n(C2CCCCC2)c1=O [Example 88, N-{[3-Cyclohexyl-6-hydroxy-1-(1-naphthalenyl)-2,4-dioxo-1,2,3,4-tetrahydro-5-pyrimidinyl]carbonyl}glycine] | > 100 µM |
| CCOC(=O)CNC(=S)c1c(O)n(C2CCCCC2)c(=O)n(C2CCCCC2)c1=O [Example 91, Ethyl N-[(1,3-dicyclohexyl-6-hydroxy-2,4-dioxo-1,2,3,4-tetrahydro-5-pyrimidinyl)carbonothioyl]glycinate] | > 100 µM |
| O=C(O)CCCCCn1c(O)c(C(=O)NCC(=O)O)c(=O)n(C2CCCCC2)c1=O [Example 93, 6-[5-{[(Carboxymethyl)amino]carbonyl}-3-cyclohexyl-6-hydroxy-2,4-dioxo-3,4-dihydro-1(2 H)-pyrimidinyl]hexanoic acid] | > 100 µM |
| O=C(O)CCCCCn1c(O)c(C(=S)NCC(=O)O)c(=O)n(C2CCCCC2)c1=O [Example 94, 6-[5-{[(Carboxymethyl)amino]carbonothioyl}-3-cyclohexyl-6-hydroxy-2,4-dioxo-3,4-dihydro-1(2 H)-pyrimidinyl]hexanoic acid] | > 100 µM |
